Test results published in the Kinase Knowledgebase extract (Sharma et al. 2016).

Target: EGFR (human) (UniProt P00533)
Details: bt474

EGFR (human), sequence (P00533 whole entry, looked up): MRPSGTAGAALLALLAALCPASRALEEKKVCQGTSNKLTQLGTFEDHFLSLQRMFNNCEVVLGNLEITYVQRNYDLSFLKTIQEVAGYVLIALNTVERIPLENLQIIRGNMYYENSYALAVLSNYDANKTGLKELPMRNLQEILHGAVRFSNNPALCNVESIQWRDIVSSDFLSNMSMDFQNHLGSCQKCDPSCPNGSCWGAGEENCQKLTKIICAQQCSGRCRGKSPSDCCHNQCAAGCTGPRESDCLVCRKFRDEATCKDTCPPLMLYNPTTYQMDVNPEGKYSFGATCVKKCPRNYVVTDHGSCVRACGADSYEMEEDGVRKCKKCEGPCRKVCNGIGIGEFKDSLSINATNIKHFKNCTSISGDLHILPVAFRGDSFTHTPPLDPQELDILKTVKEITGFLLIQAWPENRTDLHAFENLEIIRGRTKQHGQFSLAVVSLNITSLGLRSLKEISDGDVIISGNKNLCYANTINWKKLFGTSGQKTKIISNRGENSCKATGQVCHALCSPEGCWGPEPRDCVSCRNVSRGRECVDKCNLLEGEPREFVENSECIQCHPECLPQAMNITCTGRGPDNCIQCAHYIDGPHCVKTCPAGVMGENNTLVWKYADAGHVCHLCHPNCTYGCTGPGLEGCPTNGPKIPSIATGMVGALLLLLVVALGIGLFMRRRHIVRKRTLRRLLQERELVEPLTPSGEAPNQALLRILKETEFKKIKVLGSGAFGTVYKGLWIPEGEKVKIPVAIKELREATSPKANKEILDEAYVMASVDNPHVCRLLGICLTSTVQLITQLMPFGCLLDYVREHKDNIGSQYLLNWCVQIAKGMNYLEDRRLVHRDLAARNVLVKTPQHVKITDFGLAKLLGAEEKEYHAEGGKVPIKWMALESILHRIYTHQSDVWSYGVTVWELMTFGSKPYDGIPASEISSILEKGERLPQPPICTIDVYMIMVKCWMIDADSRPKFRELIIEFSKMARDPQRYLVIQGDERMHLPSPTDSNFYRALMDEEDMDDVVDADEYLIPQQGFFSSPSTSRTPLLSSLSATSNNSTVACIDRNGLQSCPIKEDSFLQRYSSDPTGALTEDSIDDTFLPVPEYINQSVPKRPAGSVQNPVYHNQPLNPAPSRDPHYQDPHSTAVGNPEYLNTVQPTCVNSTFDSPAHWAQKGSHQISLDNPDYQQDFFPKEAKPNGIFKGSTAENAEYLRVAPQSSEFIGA

Compound | IC50 [nM]
COC[C@@H]1CCN1C/C=C/C(=O)Nc1cc2c(Nc3ccc(F)c(Cl)c3)ncnc2cc1OC | 21.5
COC[C@@H]1CCN1C/C=C/C(=O)Nc1cc2c(Nc3ccc(F)c(Cl)c3)ncnc2cc1OCC1CC1 | 21.7
O=C(/C=C/CN1CCC1CO)Nc1cc2c(Nc3ccc(F)c(Cl)c3)ncnc2cc1OC[C@@H]1COCCO1 (some centres undefined) | 17.5
COCCOc1cc2ncnc(Nc3ccc(F)c(Cl)c3)c2cc1NC(=O)/C=C/CN1CC[C@H]1COC | 5.8
O=C(/C=C/CN1CCC1CO)Nc1cc2c(Nc3ccc(F)c(Cl)c3)ncnc2cc1O[C@H]1CCOC1 (some centres undefined) | 3.9
COC[C@H]1CCN1C/C=C/C(=O)Nc1cc2c(Nc3ccc(F)c(Cl)c3)ncnc2cc1OCC1CC1 | 6.6
O=C(/C=C/CN1CCC1CO)Nc1cc2c(Nc3ccc(F)c(Cl)c3)ncnc2cc1OCC1CC1 (centres undefined) | 9.5
O=C(/C=C/CN1CCC1CO)Nc1cc2c(Nc3ccc(F)c(Cl)c3)ncnc2cc1OC[C@H]1[C@@H]2COC[C@@H]21 (some centres undefined) | 10.8

Stronger by IC50, values ahead:

IC50 [nM] | Compound
1.6 | COC[C@H]1CCN1C/C=C/C(=O)Nc1cc2c(Nc3ccc(F)c(Cl)c3)ncnc2cc1OC
2.7 | O=C(/C=C/CN1CCC1CO)Nc1cc2c(Nc3ccc(F)c(Cl)c3)ncnc2cc1OC[C@H]1COCCO1 (some centres undefined)
2.3 | COc1cc2ncnc(Nc3ccc(F)c(Cl)c3)c2cc1NC(=O)/C=C/CN1CCC1CO (centres undefined)
2.9 | COCC1CCN1C/C=C/C(=O)Nc1cc2c(Nc3ccc(F)c(Cl)c3)ncnc2cc1O[C@H]1CCOC1 (some centres undefined)
2 | CCOc1cc2ncnc(Nc3ccc(F)c(Cl)c3)c2cc1NC(=O)/C=C/CN1CC[C@@H]1COC
1.4 | COCCOc1cc2ncnc(Nc3ccc(F)c(Cl)c3)c2cc1NC(=O)/C=C/CN1CC[C@@H]1COC
